Test results: patent US20250041311A1, “Compound For Treating or Preventing Vimentin-Mediated Diseases” (Aluda Pharmaceuticals, Inc., priority 2021, published 2025)

Assays:
BALB/c mice = experiment: Circulating plasma exosomes in mice after oral dosing; format: in vivo, mouse; conditions: 100 mg/kg once a day for 14 days by gavage, vs vehicle
Method: In vivo experiments: 6- to 8-week-old BALB/c mice (18 to 20 g) were purchased from Beijing Life River Experimental Animal Technology Co., Ltd. (Beijing, China) and housed at the Experimental Animal Center of Nanjing University of Traditional Chinese Medicine. Animals were maintained at 22±2° C. on a regular 12h/12h light-dark cycle with free access to food and water. All animal experiments were approved by the Ethics Committee of Nanjing University of Traditional Chinese Medicine. Animal care was provided according to IACUC-approved guidelines.
Twenty-four hours after the last administration, the mice were anesthetized with pentobarbital sodium, from which blood samples were collected, and then the mice were euthanized. […].
Isolation of exosomes from mouse plasma: To obtain plasma for exosome isolation, blood was centrifuged at 500 g for 5 min at 4° C.; 2000 g for 15 min; and treated with a solution of 10000 g for 20 min to remove cells, debris and large vesicles. The crude exosome pellet was resuspended in 60 ml of cold PBS (Invitrogen), and then the exosome suspension was centrifuged at 100,000 g for 70 min at 4° C. For sucrose density gradient centrifugation, mix the washed exosome pellet with 2 mL of […] sucrose solution and add to a sucrose step gradient column (10 2 ml sucrose gradients from […] using 20 mM HEPES as diluent). […]

DSS-induced colitis mice = experiment: DSS-induced colitis mouse model; format: in vivo; conditions: 3 mg/kg C52 intragastric, 14 days
Method: Male BALB/c mice aged 6 to 7 weeks were given 2.8% DSS (Yisheng Biotechnology Co., Ltd., Shanghai) to induce ulcerative colitis through drinking water, and the model was established continuously for 7 days. From the first day of modeling, 3 mg/kg of […] or 300 mg/kg of the positive drug mesalamine (5'-aminosalicylic acid, 5-ASA) was given by intragastric administration, and continued after the modeling 7 days. The model group was given the same volume of solvent every day. The normal control group was fed routinely without any treatment. From the first day of modeling, the animals in each group were weighed every day, and the health condition of the mice, appearance of feces and hematochezia were recorded. When the body weight of the mice lost more than 25% during the modeling process, the animals were euthanized in time. After 14 days of administration of […], mice in each group were sacrificed by vertebral dislocation. The colon was harvested, photographed and its length measured. The colon near the rectum was cut and stored in 4% paraformaldehyde ([…] Biotechnology Co., Ltd., Wuhan) for HE staining to observe the histopathological changes of the colon. Mesenteric lymph nodes were collected for flow cytometric detection of the proportion of Treg cells.

O=C(Nc1ccc(F)cc1)Nc1ccc(Nc2nc(/C=C/c3ccccc3)nc(N3CCOCC3)n2)cc1 [Compound C52]
exosomal markers CD63 and TSG101 in plasma exosomes (BALB/c mice): significantly decreased | disease activity index (DSS-induced colitis mice; vs vehicle): decreased | histological score (DSS-induced colitis mice; vs vehicle): very significant reduction | intestinal bleeding (DSS-induced colitis mice; vs vehicle): reduced | shortened colon length (DSS-induced colitis mice; vs vehicle): marked improvement | weight loss (DSS-induced colitis mice; vs vehicle): significantly less | ratio of Treg to CD4+ T cells in the mesenteric lymph nodes (DSS-induced colitis mice; vs vehicle control): significantly higher
